In patent US20010001101A1, “Phenanthroline derivatives” (Zeneca Limited, priority 1997, published 2001):

Columns and labels:
[1] = tested on: granulation tissue in wound chamber; experiment: in vivo wound chamber model; design: species or system rat; details: injected into chamber daily, day 7-14 treatment; for response vs control in vivo at 0.01 mg / response vs control in vivo at 0.05 mg: Rattus norvegicus, read-out: Mean Collagen content (% of Control) On Day 14
Method: (e) An in vivo wound chamber model involving the measurement of histological changes in granulation tissue. The test compounds were tested in rats according to the procedures generally described in Schilling et al., Surgery 46(4):702-710 (1959), Hunt et al., Am. J. Surgery 114:302-307 (1967), and Grotendorst et al., J. Clin Inves. 76:2323-2329 (1985). More specifically, stainless wire mesh cylinders were implanted subcutaneously under the back skin of rats (two chambers per animal). The compounds of the present invention were then dissolved in DMSO and injected into each chamber on a daily basis at various concentrations from either day 0-14 or day 7-14. On day 14, the chambers were collected and the granulation tissues contained within the chambers were collected for biochemical (collagen content) or histological evaluation.
Following the in vivo wound chamber model described above, fourteen of the claimed compounds tested to determine the effectiveness of the claimed compounds in inhibiting collagen deposition in the wound chamber.

dermal incisional wound = experiment: dermal wound healing, rat incisional model; assay type: in vivo; details: compared to control
Method: FIG. 6 illustrates the tensile strength on dermal incisional wound on day 7 after oral treatment of Compound 3 and Compound 12.
FIG. 7 illustrates the tensile strength of incisional wound after local injections of Compound 12.
(§1) The effectiveness of the compounds in dermal wound healing was tested using two wound healing models—rat punch model and rat incisional model—as described above.

dermal punch wound = experiment: dermal wound healing, rat punch model; assay type: in vivo; details: compared to control
Method: FIG. 5 illustrates wound area after treatment of Compound 3 in the dermal punch model.
as §1

melting point [°C]	Structure (SMILES)	response vs control in vivo at 0.01 mg ([1]; 10 μg dosage) [%]	response vs control in vivo at 0.05 mg ([1]; 50 μg dosage) [%]	also measured
–	N#CC1C=Nc2c(ccc3cccnc23)C1=O (centres unmarked) [Compound 1, 3-cyano-4-oxo-3,4-dihydro-1,10-phenanthroline]	110	112	–
–	O=C(O)C1C=Nc2c(c(Cl)cc3cccnc23)C1=O (centres unmarked) [Compound 2, 5-chloro-3-carboxy-4-oxo-3,4-dihydro-1,10-phenanthroline]	91.7	82.7	–
–	CN(Cc1ccc(F)cc1F)C(=O)c1cnc2c3c(ccc2c1)C(=O)C(C(=O)O)C=N3 (centres unmarked) [Compound 3, 3-carboxy-8-(N-methyl-N-{2,4-difluorobenzyl}carbamoyl)-4-oxo-3,4-dihydro-1,10-phenanthroline]	108	79.8	–
–	CN(Cc1ccccc1)C(=O)c1cnc2c3c(ccc2c1)C(=O)C(C#N)C=N3 (centres unmarked) [Compound 4, 3-cyano-8-(N-benzyl-N-methylcarbamoyl)-4-oxo-3,4-dihydro-1,10-phenanthroline]	81.1	66	–
–	Cc1cc2cc(C(=O)N(C)Cc3ccccc3)cnc2c2c1C(=O)C(C(=O)O)C=N2 (centres unmarked) [Compound 5, 3-carboxy-8-(N-benzyl-N-methylcarbamoyl)-5-methyl-4-oxo-3,4-dihydro-1,10-phenanthroline]	99.1	80.9	–
–	CCCN(CC)C(=O)c1cnc2c3c(ccc2c1)C(=O)C([N+](=O)[O-])C=N3 (centres unmarked) [Compound 6, 3-nitro-8-(N-ethyl-N-propylcarbamoyl)-4-oxo-3,4-dihydro-1,10-phenanthroline]	58.8	51.1	–
–	O=C(O)C1C=Nc2c(ccc3cc(O)cnc23)C1=O (centres unmarked) [Compound 7, 3-carboxy-8-hydroxy-4-oxo-3,4-dihydro-1,10-phenanthroline]	81.9	74.5	–
164 to 165	COCCOCCOC(=O)C1C=Nc2c(ccc3cccnc23)C1=O (centres unmarked) [Compound 8, 3-[2-(2-methoxyethoxy)ethoxycarbonyl]-4-oxo-3,4-dihydro-1,10-phenanthroline]	114	92.5	–
–	O=C(O)C1C=Nc2c(cc(Cl)c3cccnc23)C1=O (centres unmarked) [Compound 9, 3-carboxy-6-chloro-4-oxo-3,4-dihydro-1,10-phenanthroline]	80.3	79.9	–
–	O=C1c2ccc3cc(C(=O)N4CCN(Cc5ccccc5)CC4)cnc3c2N=CC1[N+](=O)[O-] (centres unmarked) [Compound 10, 3-nitro-8-(4-benzylpiperazine-ylcarbonyl)-4-oxo-3,4-dihydro-1,10-phenanthroline]	–	–	Mean Collagen content (% of Control) On Day 14 ([1]; 10 μg dosage): 94.81 % of Control; Mean Collagen content (% of Control) On Day 14 ([1]; 50 μg dosage): 76.54 % of Control
–	O=C1c2ccc3cccnc3c2N=CC1S(=O)(=O)C(F)(F)F (centres unmarked) [Compound 11, 3-trifluoromethylsulfonyl-4-oxo-3,4-dihydro-1,10-phenanthroline]	90.8	80.8	–
–	O=C(OCCN1CCOCC1)C1C=Nc2c(ccc3cccnc23)C1=O (centres unmarked) [Compound 13, 3-(2-{morpholino}ethoxycarbonyl)-4-oxo-3,4-dihydro-1,10-phenanthroline]	95.5	84.3	–
–	CCOC(=O)C1C=Nc2c(c(OC)cc3cccnc23)C1=O (centres unmarked) [Compound 14, 3-ethoxycarbonyl-4-oxo-5-methoxy-3,4-dihydro-1,10-phenanthroline]	72.2	70.3	tensile strength of wound (dermal incisional wound): reduced tensil strength; healing time (dermal punch wound): increased healing time
267 to 269	CN(Cc1ccccc1)C(=O)c1cnc2c3c(c(F)cc2c1)C(=O)C(C#N)C=N3 (centres unmarked) [Example IX, 8-(N-benzyl-N-methylcarbamoyl)-3-cyano-5-fluoro-4-oxo-3,4-dihydro-1,10-phenanthroline]	–	–	–
272 to 274	O=C1c2ccc3cccnc3c2N=CC1S(=O)(=O)CC(F)(F)F (centres unmarked) [Example VI, 3-(2,2,2-trifluoroethyl-sulfonyl)-4-oxo-3,4-dihydro-1,10-phenanthroline]	–	–	–
294 to 296	CN(Cc1ccc(F)cc1)C(=O)c1cnc2c3c(ccc2c1)C(=O)C([N+](=O)[O-])C=N3 (centres unmarked) [Example VII, 8-[N-(4-fluorobenzyl)-N-methylcarbamoyl]-3-nitro-4-oxo-3,4-dihydro-1,10-phenanthroline]	–	–	–
288 to 290	CCOC(=O)c1cnc2c3c(ccc2c1Cl)C(=O)C(C(C)=O)C=N3 (centres unmarked) [Example X, 3-acetyl-7-chloro-8-ethoxycarbonyl-4-oxo-3,4-dihydro-1,10-phenanthroline]	–	–	–
171 to 182	O=C(O)C1C=Nc2c(ccc3cc(C(=O)N4CCc5ccccc5C4)cnc23)C1=O (centres unmarked) [Example XIV, 3-carboxy-4-oxo-8-(1,2,3,4-tetrahydroisoquinolin-2-ylcarbonyl)-3,4-dihydro-1,10-phenanthroline]	–	–	–
169 to 170	CCOC(=O)C1C=Nc2c(ccc3c(N(C)C)c(C(=O)N(C)Cc4ccccc4)cnc23)C1=O (centres unmarked) [Example XV, 8-(N-benzyl-N-methylcarbamoyl)-7-dimethylamino-3-ethoxy-carbonyl-4-oxo-3,4-dihydro-1,10-phenanthroline]	–	–	–
